What was measured:
Type in all cases: in vivo, Albino Wistar rat
[1] = system: sodium arsanilate induced vestibular dysfunction (Vertigo disorder) in wistar rats; test: Air righting reflex (air reflecting index)
Excerpt: (§1) “Evaluation of test substance on sodium arsanilate induced vestibular dysfunction (Vertigo disorder) in wistar rats”.
(§2) Vestibular dysfunction was induced in rats by intratympanic injection of sodium arsanilate an ototoxic compound. Sodium arsanilate is an arsenic derivative and intratympanic injection result was vestibular nerve degeneration in brain stem with concomitant loss of labyrinthine righting and reduced postural support with exaggerated head dorsiflexion.
(§3) All the animals were acclimatized for at least 5 days under controlled environmental condition. Total 42 animals were divided into seven groups consisting of 6 animals per group. Normal control (G1) group receiving vehicle, disease control (G2) group receiving sodium arsanilate injection only, standard group (G3) receiving reference standard (vertin) and treatment groups G4, G5, G6 & G7 were treated with the test substances. All the groups (except normal control group) were induced with sodium arsanilate via intratymphanic injection. All the treatment groups were administered daily for 7 consecutive days.
A sponge was spread on a flat surface and the animals were placed in a supine position in the air 50 cm away above the sponge, following which the animal was dropped horizontally.
Four-legged smooth landing on the ground was considered as positive (normal animal), whereas the body or other regions landing first was considered vestibular dysfunction animals. The positive landing rate (%) of each rat in each group was recorded.

[2] = system: sodium arsanilate induced vestibular dysfunction (Vertigo disorder) in wistar rats; test: Open field test
Excerpt: as §1, §2, §3
The open-field was circular, with a diameter of 90 cm, and enclosed by a wall 30 cm high. The floor and wall of the open-field was black and the floor was divided into 25 equal area sections by thin white lines. The floor was covered with a transparent plastic coating. The open-field apparatus was located inside a large wooden frame which surrounded on all sides by black curtains. The field was illuminated by two 60-W fluorescent lights located 100 cm above the floor.
At the start of each session the rats were placed in one of the peripheral sections of the open-field and the animal's behavior was monitored by an observer for 10 consecutive minutes. […] At the end of each session the rat was returned to its home cage and the floor of the open-field was cleaned and sponged over with a weak vinegar solution to remove any residual odors.

[3] = system: sodium arsanilate induced vestibular dysfunction (Vertigo disorder) in wistar rats; test: Contact righting reflex
Excerpt: as §1, §2, §3
The rats were placed in a syringe core tube in a supine position, following which the recovery time for position correction to be recorded. Normal rats turned over their body position in a few seconds.

[4] = Rat feed consumption in the sodium arsanilate vestibular dysfunction study; settings: rats, group value
Excerpt: as §1
(§4) • Test Species: Rat • Strain: Albino Wistar • Sex: Male/Female • Age: 6-8 Weeks • Body Weight: 180-200 g • Source: In house breed • Total No. of Animals: 42 Animals (7 groups of 6 animals each) • Feed: Normal chow diet (Purina lab diet 5L79 Rat and Mouse 18%) (PMI Nutrition International) Environmental Conditions:
as §3
The feed consumption was calculated and reported on a daily basis throughout the study period.

[5] = Rat body weight in the sodium arsanilate vestibular dysfunction study; settings: rats, group value
Excerpt: as §1, §4, §3
Individual body weights were recorded at receipt, on the day of randomization, on the first day of treatment before dosing and weekly once thereafter throughout the treatment period. The body weight changes for all the animals were calculated and reported along with the body weight data.

[6] = open field test, wrt. disease control G2

## O=c1ccn([C@@H]2O[C@H](COP(=O)(O)O)[C@@H](O)[C@H]2O)c(=O)[nH]1 [Group 5, Uridine monophosphate]
[1]; animal 1
  Air Righting Reflex (% successfully righted within 5 s): 40%
[1]; animal 1, end of 7-day treatment
  Air Righting Reflex, Successful out of 5: 2
[1]; animal 2
  Air Righting Reflex (% successfully righted within 5 s): 40%
[1]; animal 2, end of 7-day treatment
  Air Righting Reflex, Successful out of 5: 2
[1]; animal 3
  Air Righting Reflex (% successfully righted within 5 s): 20%
[1]; animal 3, end of 7-day treatment
  Air Righting Reflex, Successful out of 5: 1
[1]; animal 4
  Air Righting Reflex (% successfully righted within 5 s): 40%
[1]; animal 4, end of 7-day treatment
  Air Righting Reflex, Successful out of 5: 2
[1]; animal 5
  Air Righting Reflex (% successfully righted within 5 s): 20%
[1]; animal 5, end of 7-day treatment
  Air Righting Reflex, Successful out of 5: 1
[1]; animal 6
  Air Righting Reflex (% successfully righted within 5 s): 40%
[1]; animal 6, end of 7-day treatment
  Air Righting Reflex, Successful out of 5: 2
[1]; group average of 6 animals
  Air Righting Reflex (% of Rats that successfully righted themselves within 5 s), Average: 33.33%
[2]; animal 1
  Ambulation Score [the number of open-field sections entered by the rat]: 200
  Defecation [the number of fecal boli deposited in the open-field]: 4
  Grooming [the number of grooming bouts exhibited by the rat]: 2
  Rearing Responses [the number of times the animal raised both forefeet off the floor and extended its body]: 3
[2]; animal 2
  Ambulation Score [the number of open-field sections entered by the rat]: 180
  Defecation [the number of fecal boli deposited in the open-field]: 2
  Grooming [the number of grooming bouts exhibited by the rat]: 4
  Rearing Responses [the number of times the animal raised both forefeet off the floor and extended its body]: 4
[2]; animal 3
  Ambulation Score [the number of open-field sections entered by the rat]: 190
  Defecation [the number of fecal boli deposited in the open-field]: 3
  Grooming [the number of grooming bouts exhibited by the rat]: 3
  Rearing Responses [the number of times the animal raised both forefeet off the floor and extended its body]: 3
[2]; animal 4
  Ambulation Score [the number of open-field sections entered by the rat]: 160
  Defecation [the number of fecal boli deposited in the open-field]: 4
  Grooming [the number of grooming bouts exhibited by the rat]: 3
  Rearing Responses [the number of times the animal raised both forefeet off the floor and extended its body]: 4
[2]; animal 5
  Ambulation Score [the number of open-field sections entered by the rat]: 200
  Defecation [the number of fecal boli deposited in the open-field]: 3
  Grooming [the number of grooming bouts exhibited by the rat]: 4
  Rearing Responses [the number of times the animal raised both forefeet off the floor and extended its body]: 3
[2]; animal 6
  Ambulation Score [the number of open-field sections entered by the rat]: 190
  Defecation [the number of fecal boli deposited in the open-field]: 4
  Grooming [the number of grooming bouts exhibited by the rat]: 4
  Rearing Responses [the number of times the animal raised both forefeet off the floor and extended its body]: 4
[2]; group average of 6 animals
  Ambulation Score [the number of open-field sections entered by the rat], Average: 186.67
  Defecation [the number of fecal boli deposited in the open-field], Average: 3.33
  Grooming [the number of grooming bouts exhibited by the rat], Average: 3.33
  Rearing Responses [the number of times the animal raised both forefeet off the floor and extended its body], Average: 3.50
[2]; [6]
  % Improvement in Ambulation score wrt. G2: 25.83%
  % Improvement in Defecation wrt. G2: 23.08%
  % Improvement in Grooming wrt. G2: 57.45%
  % Improvement in Rearing Responses wrt. G2: 32.81%
[3]; animal 1, recovery time for position correction
  Contact righting reflex (time): 30 s
[3]; animal 2, recovery time for position correction
  Contact righting reflex (time): 29 s
[3]; animal 3, recovery time for position correction
  Contact righting reflex (time): 28 s
[3]; animal 4, recovery time for position correction
  Contact righting reflex (time): 27 s
[3]; animal 5, recovery time for position correction
  Contact righting reflex (time): 30 s
[3]; animal 6, recovery time for position correction
  Contact righting reflex (time): 26 s
[3]; group average of 6 animals
  Contact righting reflex (time), Average: 28.33 s
[3]; wrt. the Disease Control
  contact righting reflex, improvement (wrt. the Disease Control): ≤ 30%
[4]; 0 day
  Feed Consumption, 0 day: 15.50 gm
[4]; 7th day
  Feed Consumption, 7th day: 16.67 gm
[5]; after 7 days daily treatment
  Body Weight, End of the treatment: 190.08 gm
[5]; initial
  Body Weight, Initial: 189.02 gm

From US12708640B2, “Synergistic nutritional compositions for treating vestibular associated neurodegenerative diseases” (CELAGENEX RESEARCH (INDIA) PVT. LTD., priority 2021, dated 2026)
